pIC50: −log10 of the molar value.

Sequence of Poly(ADP-ribose) glycohydrolase (Q86W56 whole entry): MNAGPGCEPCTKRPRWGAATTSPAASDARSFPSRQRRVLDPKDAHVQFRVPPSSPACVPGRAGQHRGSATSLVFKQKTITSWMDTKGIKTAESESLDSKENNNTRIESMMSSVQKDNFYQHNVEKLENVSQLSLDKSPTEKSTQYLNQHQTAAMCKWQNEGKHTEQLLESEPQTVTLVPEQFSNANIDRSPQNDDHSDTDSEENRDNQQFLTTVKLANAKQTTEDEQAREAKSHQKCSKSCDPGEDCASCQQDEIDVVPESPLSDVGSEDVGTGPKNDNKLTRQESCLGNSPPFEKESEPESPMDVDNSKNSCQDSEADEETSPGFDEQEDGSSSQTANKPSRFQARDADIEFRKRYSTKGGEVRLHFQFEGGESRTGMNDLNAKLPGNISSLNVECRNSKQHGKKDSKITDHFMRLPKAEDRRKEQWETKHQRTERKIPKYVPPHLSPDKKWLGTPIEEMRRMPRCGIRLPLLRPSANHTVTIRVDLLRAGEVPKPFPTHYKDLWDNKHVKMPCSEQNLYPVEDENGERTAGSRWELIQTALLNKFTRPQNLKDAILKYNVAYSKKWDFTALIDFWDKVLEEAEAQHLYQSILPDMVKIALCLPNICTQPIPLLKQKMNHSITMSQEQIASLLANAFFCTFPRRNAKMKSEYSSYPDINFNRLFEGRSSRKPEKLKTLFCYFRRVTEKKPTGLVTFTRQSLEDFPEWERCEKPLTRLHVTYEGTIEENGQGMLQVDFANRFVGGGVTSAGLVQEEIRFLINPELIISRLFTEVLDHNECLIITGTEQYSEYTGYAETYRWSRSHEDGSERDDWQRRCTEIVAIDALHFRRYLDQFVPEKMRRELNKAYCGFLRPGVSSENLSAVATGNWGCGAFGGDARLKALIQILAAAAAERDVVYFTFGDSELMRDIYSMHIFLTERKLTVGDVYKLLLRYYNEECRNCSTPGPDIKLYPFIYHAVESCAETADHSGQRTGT

The target in this assay is Poly(ADP-ribose) glycohydrolase (Homo sapiens, UniProt Q86W56). The assay is described as follows: PARG Activity Assay. As for the experimental part:
PARG Activity Assay was performed in Streptavidin-coated 96-well plates. […] The substrate solution was added to the 96-well plate at the volume of 200 micro liter per well and incubated for 3 hours at room temperature. After the incubation, the substrate solution was discarded and assay plate was washed 4 times with 220 micro liter of PBS containing 0.1% Tween20 (PBST). […] The diluted enzyme solution was pre-incubated with compounds for 1 hour at room temperature in a 96-well plate and transferred 100 micro liter per well to the poly (ADP-ribose) substrate-coated assay plate. The plate was incubated for 1 hour at 25° C. and then washed 4 times with 220 micro liters of PBST. For the detection of non-digested poly (ADP-ribose) polymer on the plate, mouse anti-poly (ADP-ribose) antibody diluted with 0.2% BSA containing PBS was added 100 micro liters per well and incubated 1 hour at room temperature. Plate was washed 4 times with TBST and 100 micro liter of HRP-labeled anti-mouse Ig antibody was added to the wells. Plate was incubated for 30 minutes at room temperature and then washed 4 times with PBST. For the detection 100 micro liters of TMB substrate solution was added to the wells. After sufficient color development, reaction was stopped by addition of 50 micro liter of 0.2 M […].
The compound `Cn1cc(Cn2c(=O)c3cc(S(=O)(=O)NC4(C)CC4)sc3n(Cc3cnc4c(c3)COC4)c2=O)cn1` [US20240083908, Example 108] showed a pIC50 of 8.40.
Compound `CN(C)CCN(C)c1ccc(Cn2c(=O)n(Cc3cnn(C)c3)c(=O)c3cc(S(=O)(=O)NC4(C)CC4)sc32)cc1F` [US20240083908, Example 78] gave a pIC50 of 6.95.
Compound `Cc1ncc(Cn2c(=O)c3cc(S(=O)(=O)NC4(C)CC4)sc3n(Cc3cc(C(C)C)nn3C)c2=O)s1` [US20240083908, Example 107] gave a pIC50 of 7.15.
For the compound `CN1CCC(Cn2c(=O)n(Cc3cnn(C)c3)c(=O)c3cc(S(=O)(=O)NC4(C)CC4)sc32)CC1` [US20240083908, Example 98], the pIC50 was 5.23.
The same measure for `COc1ccc(Cn2c(=O)n(Cc3cnn(C)c3)c(=O)c3cc(S(=O)(=O)NC4(C)CC4)sc32)cc1` [US20240083908, Example 50]: 7.40; for `Cn1cc(Cn2c(=O)c3cc(S(=O)(=O)NC4(C)CC4)sc3n(Cc3ccc4c(c3)CC(=O)N4)c2=O)cn1` [US20240083908, Example 130]: 8.52; for `Cn1cc(Cn2c(=O)c3cc(S(=O)(=O)NC4(C#N)CC4)sc3n(Cc3ccc4c(c3)COC4)c2=O)cn1` [US20240083908, Example 100]: 7.38.
Compound `Cn1cc(Cn2c(=O)c3cc(S(=O)(=O)NC4(C)CC4)sc3n(CC3CCN(CCO)CC3)c2=O)cn1` [US20240083908, Example 99] gave a pIC50 of 6.30.
For the compound `Cc1nc(C)c(Cn2c(=O)n(Cc3cnn(CCO)c3)c(=O)c3cc(S(=O)(=O)NC4(C)CC4)sc32)s1` [US20240083908, Example 104b], the negative logarithm of the IC50 (pIC50) was 6.92.
In the case of `Cc1ncc(Cn2c(=O)[nH]c3sc(S(=O)(=O)NC4(C)CC4)cc3c2=O)s1` [US20240083908, Example 1], the pIC50 is 4.64.
Compound `Cn1cc(Cn2c(=O)c3cc(S(=O)(=O)NC4(C)CC4)sc3n(C3CCNCC3)c2=O)cn1` [US20240083908, Example 91] had a negative logarithm of the IC50 (pIC50) of 6.57.
Regarding `Cn1cc(Cn2c(=O)c3cc(S(=O)(=O)NC4(C)CC4)sc3n(Cc3ccc4oc(CO)cc4c3)c2=O)cn1` [US20240083908, Example 64], the pIC50 is 7.82.
`Cn1cc(Cn2c(=O)c3cc(S(=O)(=O)NC4(C)CC4)sc3n(Cc3ccc4cn[nH]c4c3)c2=O)cn1` [US20240083908, Example 36] showed a negative-log IC50 (pIC50) of 8.28.
For `COCc1cc2cc(Cn3c(=O)n(Cc4cnn(C)c4)c(=O)c4cc(S(=O)(=O)NC5(C)CC5)sc43)ccc2o1` [US20240083908, Example 63] the value was 7.70; for `Cn1cc(Cn2c(=O)c3cc(S(=O)(=O)NC4(C)CC4)sc3n(Cc3ccc4cncn4c3)c2=O)cn1` [US20240083908, Example 40], 8.39; for `Cn1cc(Cn2c(=O)c3cc(S(=O)(=O)NC4(C)CC4)sc3n(Cc3ccc4c(c3)COC4)c2=O)cn1` [US20240083908, Example 28], 8.00.
For `CNCCC(=O)N1CCC(n2c(=O)n(Cc3cnn(C)c3)c(=O)c3cc(S(=O)(=O)NC4(C)CC4)sc32)CC1` [US20240083908, Example 95] the value was 6.49.
For `Cn1cc(Cn2c(=O)c3cc(S(=O)(=O)NC4(C)CC4)sc3n(Cc3ccc(OC4CC4)cc3)c2=O)cn1` [US20240083908, Example 68] the value was 7.20; for `Cc1ncc(Cn2c(=O)c3cc(S(=O)(=O)NC4(C)CC4)sc3n(CCCN(C)C)c2=O)s1` [US20240083908, Example 8], 6.20; for `CNCCN(C)c1ccc(Cn2c(=O)n(Cc3cnn(C)c3)c(=O)c3cc(S(=O)(=O)NC4(C)CC4)sc32)cc1F` [US20240083908, Example 77], 7.15.
`Cn1cc(Cn2c(=O)c3cc(S(=O)(=O)NC4(C)CC4)sc3n(-c3ccc(F)cc3)c2=O)cn1` [US20240083908, Example 136] had a pIC50 of 6.07.
`CC(=O)N1CCC(n2c(=O)n(Cc3cnn(C)c3)c(=O)c3cc(S(=O)(=O)NC4(C)CC4)sc32)CC1` [US20240083908, Example 92] gave a pIC50 of 6.64.
For `COc1cc2c(cc1Cn1c(=O)n(Cc3cnn(C)c3)c(=O)c3cc(S(=O)(=O)NC4(C)CC4)sc31)COC2` [US20240083908, Example 111] the value was 6.92.
For `Cn1cc(Cn2c(=O)c3cc(S(=O)(=O)NC4(C)CC4)sc3n(Cc3cc4c(cc3F)COC4)c2=O)cn1` [US20240083908, Example 110], the pIC50 is 7.77.
`COc1cc(Cn2c(=O)n(Cc3cnn(C)c3)c(=O)c3cc(S(=O)(=O)NC4(C)CC4)sc32)ccc1F` [US20240083908, Example 121] showed a negative-log IC50 (pIC50) of 7.70.
As for `Cc1nc(C)c(Cn2c(=O)n(Cc3ccc(Cl)nc3)c(=O)c3cc(S(=O)(=O)NC4(C)CC4)sc32)s1` [US20240083908, Example 105], the pIC50 was 7.30.
For `Cc1nc(C)c(Cn2c(=O)n(Cc3cnn(C)c3)c(=O)c3cc(S(=O)(=O)NC4(C)CC4)sc32)s1` [US20240083908, Example 25] the value was 7.89; for `Cn1cc(Cn2c(=O)c3cc(S(=O)(=O)NC4(C)CC4)sc3n(Cc3cnn(CCO)c3)c2=O)cn1` [US20240083908, Example 57], 7.70.
The compound `CC1(NS(=O)(=O)c2cc3c(=O)n(Cc4nc5c(s4)CCCC5)c(=O)n(Cc4ccc5c(c4)COC5)c3s2)CC1` [US20240083908, Example 106] had a negative-log IC50 (pIC50) of 6.00.

These data come from BindingDB's records for patent US20240083908 (Modulus Discovery, 2024).
